Experimental data taken from patent publication US20240368174A1, “Antiviral Heterocyclic Compounds” (Enanta Pharmaceuticals, Inc., priority 2023, published 2024).

Tested on: HMPV clinical isolate A2 strain TN 94-49
Test: HMPV antiviral assay, Method 1 (LLC-MK2 cells, ATP-Lite)
Type: cell-based
Details: human metapneumovirus, hMPV A2 TN/94-49, LLC-MK2 cells
Method: In vitro HMPV antiviral activity was evaluated using the clinical isolate A2 strain TN 94-49 (obtained from Dr. John Williams, Vanderbilt University, Tennessee) and LLC-MK2 cells (ATCC #CCL-7), an immortalized kidney epithelial cell line from Macaca mulatta. Compounds were resuspended in dimethyl sulfoxide (DMSO) at 10 mM, serially diluted and added to a 384-well source plate. Subsequently, the compounds were diluted and transferred onto 384-well assay plates using the Echo-650 automated liquid handling system (Beckman Coulter, Indiana). The test compounds were assessed in duplicate at a top concentration of 2 μM followed by 2.5-fold serial dilutions to give a total of 10 concentration points. DMSO control wells were also included on the assay plates and were either infected or not, acting as positive and negative controls. A2 TN 94-49 virus infections were performed in-suspension with LLC-MK2 cells. The cells were washed twice with PBS and removed from the cell-culture flask with 0.25% trypsin-EDTA (Thermo Fisher Scientific, MA). The trypsin-EDTA was inactivated by resuspending in 2% fetal bovine serum (FBS) and OptiMEM (ThermoFisher Scientific, MA) containing 1% penicillin-streptomycin. Cells were pelleted by centrifuging for 5 minutes at 800 rpm, the supernatant was removed, and cells were re-suspended and washed in PBS plus 100 μg/mL CaCl2). This step was performed twice. Cells were then re-suspended in serum-free (SF)-OptiMEM containing 4 μg/mL TPCK-Trypsin (Sigma Aldrich, MO), 1% penicillin-streptomycin (ThermoFisher Scientific, MA) and 100 μg/mL CaCl2). Cells were counted and seeded at a density of 5,000 cells/well, 12.5 μL/well. Virus infections were done at a multiplicity of infection (MOI) of 0.005 with 12.5 μL added per well. Virus infections were performed in infection media which contained SF-OptiMEM, 100 μg/mL CaCl2) and 1% penicillin-streptomycin. HMPV viral stocks are suspended in infection media+5% glycerol, thus an equal volume of infection media+5% glycerol was added to uninfected wells to equalize the final % glycerol across all wells of the assay plate. The final concentration of TPCK-trypsin was 2 μg/mL. The assay plates were incubated at 37° C., 5% CO2 for 7 days. After 7 days incubation, 12.5 μL of ATP-Lite (PerkinElmer, MA) was added to each well and the raw luminescence values were determined using the Envision 2104 (Perkin Elmer, MA). The average of the raw luminescence values for the cells and virus only positive control wells was subtracted from all conditions tested and the percent cell health was determined by dividing these values by the average of the cells only negative control wells. EC50 values were then calculated by non-linear regression using a four-parameter curve logistic equation. The curve fit model employed was XLFit Dose Response One Site Model 200: y=(A+(B/(1+((x/C)^D)))), where A is the minimum y value, B is the maximum y value, C is the log EC50 value, and D is the slope factor.

Compound: [2H]c1nc2c(OC)cc(C(=O)NC[C@](O)(c3cc4c(c(-c5cc(F)c(F)cc5F)n3)OC[C@]4(C)C(N)=O)C3CC3)cc2cc1Br [Example 30]
- EC50: < 0.5 µM

Compound: COc1cc(C(=O)NC[C@](O)(c2cc3c(c(-c4cc(F)c(F)cc4F)n2)OC[C@]3(C)C(N)=O)C2CC(F)(F)C2)cc2cn(C3CC3)nc12 [Example 31]
- EC50: < 0.5 µM

Compound: C[C@]1(C(N)=O)COc2c1cc([C@@](O)(CNC(=O)c1cc(Cl)c3nn(C4CC4)cc3c1)C1CC1)nc2-c1ccc2c(c1Cl)OC(F)(F)O2 [Example 35]
- EC50: < 0.5 µM

Compound: COc1cc(C(=O)NC[C@](O)(c2cc3c(c(-c4cccc(SC(F)(F)F)c4)n2)OC[C@]3(C)C(N)=O)C2CC2)cc2cn(C3CC3)nc12 [Example 36]
- EC50: > 0.5 µM

Compound: C[C@]1(C(N)=O)COc2c1cc([C@@](O)(CNC(=O)c1cc(OC(F)F)c3nn(C4CC4)cc3c1)C1CC1)nc2-c1ccc(F)c(F)c1Cl [Example 39]
- EC50: < 0.5 µM

Compound: C[C@]1(C(N)=O)COc2c1cc([C@@](O)(CNC(=O)c1cc(OC(F)F)c3nn(C4CC4)cc3c1)C1CC1)nc2-c1ccc(F)c(Cl)c1F [Example 40]
- EC50: < 0.5 µM

Compound: COc1cc(C(=O)NC[C@@](O)(c2ccc(F)cc2)c2cc3c(c(-c4ccc(F)c(Cl)c4Cl)n2)OC[C@]3(C)C(N)=O)cc2cn(C(F)F)nc12 [Example 42]
- EC50: < 0.5 µM

Compound: COc1cc(C(=O)NC[C@@](O)(c2ccc(F)cc2)c2cc3c(c(-c4ccc(F)c(Cl)c4Cl)n2)OC[C@]3(C)C(N)=O)cc2cc(Cl)c(C)nc12 [Example 44]
- EC50: < 0.5 µM

Compound: COc1cc(C(=O)NC[C@@](O)(c2ccc(F)cc2)c2cc3c(c(-c4ccc(F)c(Cl)c4Cl)n2)OC[C@]3(C)C(N)=O)cc2cc(C3CC3)nn12 [Example 45]
- EC50: < 0.5 µM

Compound: COc1cc(C(=O)NC[C@](O)(c2cc3c(c(-c4cc(F)c(F)cc4F)n2)OC[C@]3(C)C(N)=O)C2CC2)cc2cc(C(F)(F)F)cnc12 [Example 46]
- EC50: > 0.5 µM

Compound: COc1cc(C(=O)NC[C@](O)(c2cc3c(c(-c4cc(Cl)cc(C)c4F)n2)OC[C@]3(C)C(N)=O)C2CC2)cc2cn(C3CC3)nc12 [Example 47]
- EC50: > 0.5 µM

Compound: COc1cc(C(=O)NC[C@](O)(c2cc3c(c(-c4ccc5ccsc5c4)n2)OC[C@]3(C)C(N)=O)C2CC2)cc2cn(C3CC3)nc12 [Example 48]
- EC50: > 0.5 µM

Compound: COc1cc(C(=O)NC[C@](O)(c2cc3c(c(-c4cc(C)cc(F)c4F)n2)OC[C@]3(C)C(N)=O)C2CC2)cc2cn(C3CC3)nc12 [Example 49]
- EC50: > 0.5 µM

Compound: COc1cc(C(=O)NC[C@](O)(c2cc3c(c(-c4cc(Cl)c(C)cc4F)n2)OC[C@]3(C)C(N)=O)C2CC2)cc2cn(C3CC3)nc12 [Example 51]
- EC50: > 0.5 µM

Compound: COc1cc(C(=O)NC[C@](O)(c2cc3c(c(-c4ccc5c(c4Cl)OC(F)(F)O5)n2)OC[C@]3(C)C(N)=O)C(F)(F)F)cc2cn(C3CC3)nc12 [Example 52]
- EC50: > 0.5 µM

Compound: COc1cc(C(=O)NC[C@](O)(c2cc3c(c(-c4cc(C(F)(F)F)ccc4C)n2)OC[C@]3(C)C(N)=O)C2CC2)cc2cn(C3CC3)nc12 [Example 53]
- EC50: < 0.5 µM

Compound: COc1cc(C(=O)NC[C@](O)(c2cc3c(c(-c4cccc(S(F)(F)(F)(F)F)c4)n2)OC[C@]3(C)C(N)=O)C(F)(F)F)cc2cn(C3CC3)nc12 [Example 54]
- EC50: > 0.5 µM

Compound: COc1cc(C(=O)NC[C@](O)(c2cc3c(c(-c4ccc(C(F)(F)F)c(C)c4)n2)OC[C@]3(C)C(N)=O)C2CC2)cc2cn(C3CC3)nc12 [Example 55]
- EC50: > 0.5 µM

Compound: COc1cc(C(=O)NC[C@](O)(c2cc3c(c(-c4ccc(C)c(C(F)(F)F)c4)n2)OC[C@]3(C)C(N)=O)C2CC2)cc2cn(C3CC3)nc12 [Example 56]
- EC50: > 0.5 µM

Compound: COc1cc(C(=O)NC[C@@](O)(c2cc3c(c(-c4cc(F)c(F)c(F)c4Cl)n2)OC[C@]3(C)C(N)=O)C(F)(F)F)cc2cn(C3CC3)nc12 [Example 58]
- EC50: > 0.5 µM

Compound: COc1cc(C(=O)NC[C@](O)(c2cc3c(c(-c4cc(F)c(F)c(F)c4Cl)n2)OC[C@]3(C)C(N)=O)C(F)(F)F)cc2cn(C3CC3)nc12 [Example 59]
- EC50: < 0.5 µM

Compound: COc1cc(C(=O)NC[C@](O)(c2cc3c(c(-c4ccc(Cl)c(Cl)c4Cl)n2)OC[C@]3(C)C(N)=O)C2CC2)cc2cn(C3CC3)nc12 [Example 60]
- EC50: < 0.5 µM

Compound: COc1cc(C(=O)NC[C@](O)(c2cc3c(c(-c4cc(Cl)cc(Cl)c4Cl)n2)OC[C@]3(C)C(N)=O)C2CC2)cc2cn(C3CC3)nc12 [Example 61]
- EC50: < 0.5 µM

Compound: COc1cc(C(=O)NC[C@](O)(c2cc3c(c(-c4cc(Cl)c(Cl)cc4Cl)n2)OC[C@]3(C)C(N)=O)C2CC2)cc2cn(C3CC3)nc12 [Example 62]
- EC50: > 0.5 µM

Compound: COc1cc(C(=O)NC[C@](O)(c2cc3c(c(-c4ccc(F)cc4O)n2)OC[C@]3(C)C(N)=O)C2CC2)cc2cn(C3CC3)nc12 [Example 63]
- EC50: > 0.5 µM

Compound: COc1cc(C(=O)NC[C@@](O)(c2cc3c(c(-c4ccc(F)cc4O)n2)OC[C@]3(C)C(N)=O)C2CC2)cc2cn(C3CC3)nc12 [Example 64]
- EC50: > 0.5 µM

Compound: COc1cc(F)ccc1-c1nc([C@@](O)(CNC(=O)c2cc(OC)c3nn(C4CC4)cc3c2)C2CC2)cc2c1OC[C@]2(C)C(N)=O [Example 67]
- EC50: > 0.5 µM

Compound: COc1cc(C(=O)NC[C@](O)(c2cc3c(c(-c4ccc(F)c(CO)c4F)n2)OC[C@]3(C)C(N)=O)C2CC2)cc2cn(C3CC3)nc12 [Example 72]
- EC50: > 0.5 µM

Compound: COc1cc(C(=O)NC[C@](O)(c2cc3c(c(-c4cc(Cl)c(F)cc4F)n2)OC[C@]3(C)C(N)=O)C2CC2)cn2cc(C(F)F)nc12 [Example 78]
- EC50: > 0.5 µM

Compound: COc1cc(C(=O)NC[C@@](O)(c2ccccc2)c2cc3c(c(-c4cc(Cl)c(F)cc4F)n2)OC[C@]3(C)C(N)=O)cc2ccc(C)nc12 [Example 79]
- EC50: < 0.5 µM

Compound: COc1cc(C(=O)NC[C@@](O)(c2ccccc2)c2cc3c(c(-c4cc(Cl)c(F)cc4F)n2)OC[C@]3(C)C(N)=O)cc2cc(C)cnc12 [Example 80]
- EC50: < 0.5 µM

Compound: C[C@]1(C(N)=O)COc2c1cc([C@@](O)(CNC(=O)c1ccc3nc(C(F)(F)F)oc3c1)c1ccccc1)nc2-c1cc(Cl)c(F)cc1F [Example 82]
- EC50: > 0.5 µM

Compound: COc1cc(C(=O)NC[C@@](O)(c2ccccc2)c2cc3c(c(-c4cc(Cl)c(F)cc4F)n2)OC[C@]3(C)C(N)=O)cc2cc(C(F)(F)F)cnc12 [Example 83]
- EC50: < 0.5 µM

Compound: COc1cc(C(=O)NC[C@@](O)(c2ccccc2)c2cc3c(c(-c4cc(Cl)c(F)cc4F)n2)OC[C@]3(C)C(N)=O)cc2oc(C)nc12 [Example 84]
- EC50: < 0.5 µM

Compound: Cc1nc2ccc(C(=O)NC[C@@](O)(c3ccccc3)c3cc4c(c(-c5cc(Cl)c(F)cc5F)n3)OC[C@]4(C)C(N)=O)cc2o1 [Example 86]
- EC50: < 0.5 µM

Compound: [2H]C([2H])([2H])c1nc2ccc(C(=O)NC[C@@](O)(c3ccccc3)c3cc4c(c(-c5cc(Cl)c(F)cc5F)n3)OC[C@]4(C)C(N)=O)cc2o1 [Example 87]
- EC50: < 0.5 µM

Compound: COc1cc(C(=O)NC[C@@](O)(c2cccc(F)c2)c2cc3c(c(-c4cc(Cl)c(F)cc4F)n2)OC[C@]3(C)C(N)=O)cc2cn(C(F)F)nc12 [Example 134]
- EC50: < 0.5 µM

Compound: Cc1nc2c(OC(F)F)cc(C(=O)NC[C@@](O)(c3cccc(F)c3)c3cc4c(c(-c5cc(Cl)c(F)cc5F)n3)OC[C@]4(C)C(N)=O)cc2cc1Br [Example 135]
- EC50: > 0.5 µM

Compound: COc1cc(C(=O)NC[C@](O)(c2cc3c(c(-c4cc(Cl)c(F)cc4F)n2)OC[C@]3(C)C(N)=O)c2ccccc2F)cc2cn(C3CC3)nc12 [Example 136]
- EC50: < 0.5 µM

Compound: COc1cc(C(=O)NC[C@](O)(c2cc3c(c(-c4cc(Cl)c(F)cc4F)n2)OC[C@]3(C)C(N)=O)c2ccccc2F)cc2cc(C3CC3)nn12 [Example 137]
- EC50: < 0.5 µM

Compound: COc1cc(C(=O)NC[C@](O)(c2cc3c(c(-c4cc(Cl)c(F)cc4F)n2)OC[C@]3(C)C(N)=O)c2ccccc2F)cc2cn(C(F)F)nc12 [Example 138]
- EC50: < 0.5 µM

Compound: CNC(=O)[C@@]1(C)COc2c1cc([C@@](O)(CNC(=O)c1cc(OC)c3nn(C4CC4)cc3c1)c1ccccc1)nc2-c1cc(Cl)c(F)cc1F [Example 141]
- EC50: < 0.5 µM

Compound: CCNC(=O)[C@@]1(C)COc2c1cc([C@@](O)(CNC(=O)c1cc(OC)c3nn(C4CC4)cc3c1)c1ccccc1)nc2-c1cc(Cl)c(F)cc1F [Example 142]
- EC50: < 0.5 µM

Compound: COc1cc(C(=O)NC[C@@](O)(c2ccccc2)c2cc3c(c(-c4cc(Cl)c(F)cc4F)n2)OC[C@]3(C)C(=O)NC2CC2)cc2cn(C3CC3)nc12 [Example 143]
- EC50: < 0.5 µM
